In patent publication US4129721A, “A-40104 antibiotics and process for production thereof” (priority 1977, dated 1978):
In brackets after ≈: the same amount, converted by molar mass. Read-outs that look alike come from different tables or passages of the source.

Legend:
[1] = test system: swine dysentery; settings: W. E. Brown et al., U.S. Pat. No. 4,041,175; cited from earlier work
[2] = acute toxicity, intraperitoneal injection in mice; settings: mouse, in vivo, ip
Excerpt: A special advantage of the A-40104 antibiotics is that they are relatively nontoxic.

[3] = test system: Mycoplasma gallisepticum; test: in vitro broth-dilution studies, mycoplasma; format: cell-based
Excerpt: (§1) The minimal inhibitory concentrations (MIC's) of A-40104 factor A; 19,20-dihydro-A-40104 factor A; and the tetraacetyl derivative of A-40104A against various mycoplasma species, as determined by in vitro broth-dilution studies, are summarized in Table IX.

[4] = test system: Mycoplasma hyopneumoniae; test: in vitro broth-dilution studies, mycoplasma; format: cell-based
Excerpt: as §1

[5] = test system: Mycoplasma hyorhinis; test: in vitro broth-dilution studies, mycoplasma; format: cell-based
Excerpt: as §1

[6] = test system: Mycoplasma synoviae; test: in vitro broth-dilution studies, mycoplasma; format: cell-based
Excerpt: as §1

[7] = test system: Streptococcus pyogenes; test: gradient-plate agar-dilution method; format: cell-based
[8] = test system: Streptococcus sp. X-66 (Group D); test: gradient-plate agar-dilution method; format: cell-based
[9] = test system: Streptococcus sp. 9960 (Group D); test: gradient-plate agar-dilution method; format: cell-based
[10] = test system: Neisseria gonorrhea Sand.; test: gradient-plate agar-dilution method; format: cell-based
[11] = test system: Neisseria gonorrhea Lind.; test: gradient-plate agar-dilution method; format: cell-based
[12] = test system: Hemophilus influenzae Brun; test: gradient-plate agar-dilution method; format: cell-based; settings: Haemophilus influenzae
[13] = test system: Hemophilus influenzae Dick.; test: gradient-plate agar-dilution method; format: cell-based; settings: Haemophilus influenzae
[14] = test system: Hemophilus influenzae 251; test: gradient-plate agar-dilution method; format: cell-based; settings: Haemophilus influenzae
[15] = test system: Hemophilus influenzae 259; test: gradient-plate agar-dilution method; format: cell-based; settings: Haemophilus influenzae
[16] = test system: Hemophilus influenzae 260; test: gradient-plate agar-dilution method; format: cell-based; settings: Haemophilus influenzae
[17] = test system: Staphylococcus aureus 3055; test: experimental bacterial infection in mice; format: in vivo; settings: two doses, read-out: ED50 × 2
[18] = test system: Streptococcus pyogenes C203; test: experimental bacterial infection in mice; format: in vivo; settings: sc, two doses, challenge 1,690 × LD50 (ip), read-out: ED50 × 2
[19] = test system: Streptococcus pneumoniae Bi-343; test: experimental bacterial infection in mice; format: in vivo; settings: BI343, sc, two doses, challenge 30 × LD50 (ip), read-out: ED50 × 2
[20] = test system: Streptococcus pneumoniae BI-492; test: experimental bacterial infection in mice; format: in vivo; settings: BI492, sc, two doses, challenge 340 × LD50 (ip), read-out: ED50 × 2
[21] = test system: Pasteurella hemolytica; test: standard in vitro tests, Pasteurella; format: cell-based
Excerpt: (§2) Another veterinary aspect of this invention is the activity of the A-40104 antibiotics against Pasteurella species. P. multocida, for example, is a causative agent of respiratory infection in cattle, poultry, and swine. P. hemolytica is a major cause of respiratory disease in cattle. The activity of A-40104 factor A and its dihydro derivative against Pasteurella, as determined by standard in vitro tests, is summarized in Table X.

[22] = test system: Pasteurella multocida (bovine); test: standard in vitro tests, Pasteurella; format: cell-based
Excerpt: as §2

[23] = test system: experimental bacterial infections; test: experimental bacterial infections in mice (general statement); format: in vivo
Description: When two doses of these compounds were administered to mice in illustrative infections, the activity observed was measured as an ED50 value [effective dose in mg./kg. to protect 50 percent of the test animals; see Warren Wick, et al., J. Bacteriol. 81, 233-235 (1961)].

## C=C[C@]1(C)C[C@@H](OC(=O)CO)[C@]2(C)[C@H](C)CC[C@]3(CCC(=O)[C@H]32)[C@@H](C)[C@@H]1O [pleuromutilin]
[1]
  effect in treatment of swine dysentery: effective in the treatment of swine dysentery

## C=CC1(C)CC(OC(=O)CO[C@@H]2OC[C@@H](OC(C)=O)[C@H](OC(C)=O)[C@H]2OC(C)=O)C2(C)C(C)CCC3(CCC(=O)C32)C(C)C1OC(C)=O (some centres unmarked) [Tetraacetyl A-40104A, tetraacetyl derivative of A-40104 factor A]
[2]
  LD50: > 300 mg/kg
[3]
  minimal inhibitory concentration (MIC): 12.5
[4]
  minimal inhibitory concentration (MIC): 12.5
[5]
  minimal inhibitory concentration (MIC): 25.0
[6]
  minimal inhibitory concentration (MIC): 50.0

## CC1(C)S[C@@H]2[C@H](NC(=O)[C@H](N)c3ccccc3)C(=O)N2[C@H]1C(=O)O [Ampicillin, reference compound]
[7]
  MIC: < 0.01 µg/mL
[8]
  MIC: 0.8 µg/mL (≈ 2.29 µM)
[9]
  MIC: 0.6 µg/mL (≈ 1.72 µM)
[10]
  MIC: 0.07 µg/mL (≈ 0.2 µM)
[11]
  MIC: 0.5 µg/mL (≈ 1.43 µM)
[12]
  MIC: 0.5 µg/mL (≈ 1.43 µM)
[13]
  MIC: 0.5 µg/mL (≈ 1.43 µM)
[14]
  MIC: 70 µg/mL (≈ 200 µM)
[15]
  MIC: 70 µg/mL (≈ 200 µM)
[16]
  MIC: 70 µg/mL (≈ 200 µM)

## CCC1(C)CC(OC(=O)CO[C@@H]2OC[C@@H](O)[C@H](O)[C@H]2O)C2(C)C(C)CCC3(CCC(=O)C32)C(C)C1O (some centres unmarked) [Dihydro-A-40104A, 19,20-dihydro A-40104 factor A]
[17]; Staphylococcus aureus, 3055, po, oral, challenge 500 × LD50 (ip)
  ED50: 27 mg/kg
[17]; Staphylococcus aureus, 3055, po, oral, challenge 3,400 × LD50 (ip)
  ED50: 28 mg/kg
[17]; Staphylococcus aureus, 3055, sc, sc, challenge 69.5 × LD50 (ip)
  ED50: ≤ 4.4 mg/kg
[18]
  ED50: 5.8 mg/kg
[19]
  ED50: 35 mg/kg
[20]
  ED50: 15.2 mg/kg
[3]
  minimal inhibitory concentration (MIC): 0.195
[4]
  minimal inhibitory concentration (MIC): 0.097
[5]
  minimal inhibitory concentration (MIC): 0.195
[6]
  minimal inhibitory concentration (MIC): 0.195
[21]
  MIC: 16.5 µg/mL (≈ 32.2 µM)
[22]
  MIC: 6.25 µg/mL (≈ 12.2 µM)
[23]
  in vivo antimicrobial activity: have shown in vivo antimicrobial activity
